Test results published in patent publication US4877893A, “Process for the preparation of 2-(O-alkyl)-2-thio-1,3,2-oxathiophospholanes” (priority 1987, dated 1989).

Assays:
Alternaria sp. = assay: Fungicidal effect on paprika seeds on agar, colony diameter; assay type: cell-based; settings: 5th day, control 36.62
Method: (§1) The test is carried out on paprika seeds placed on agar nutrient medium and impregnated with phytopathogenic Fungi (Alternaria sp., Penicillium sp., Sclerotinia sp.). The paprika seeds are treated with various doses of 2-(0-2'-chloroethyl)-2-thio-1,3,2-oxathiophospholane (Compound No. 1 of Table I) and the known fungicidal agent Aliette, respectively.
(§2) The concentration data relate to the active ingredient. Treatment is carried out by using a 20 EC prepared according to Example 27. Evaluation is carried out on the 5th day after treatment by measuring the diameter of the Fungi colonies.

Penicillium sp. = assay: as above; assay type: cell-based; settings: 5th day, control 23.35
Method: as §1, §2

Sclerotinia sp. = assay: as above; assay type: cell-based; settings: 5th day, control 41.50
Method: as §1, §2

Sclerotinia sclerotinia = assay: Fungicidal effect on infected agar nutrient media, colony diameter; assay type: cell-based; settings: 3rd day after treatment, untreated control 41.7
Method: Agar nutrient media (Diameter 70 MM, thickness 10 mm) infected by Sclerotonia sclerotinia suspension are treated with 20 EC formulations prepared according to Example 27 and comprising 1, 10, 100 and 1000 ppm, respectively of the active ingredient of the Formula I. The fungicidal effect of the compositions is evaluated on the 3rd day after treatment by measuring the diameter of the Fungi colonies.

Penicillium cyclopium = assay: as above; assay type: cell-based; settings: 7th day after treatment, untreated 26.5
Method in brief: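 Agar media (70 mm diameter, 10 mm thick) infected with Penicillium cyclopium were treated with EC formulations at 1, 10, 100 and 1000 ppm active ingredient. Fungal colony diameter was measured on day 7 after treatment.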

Alternaria tenuis = assay: as above; assay type: cell-based; settings: 5th day after treatment, untreated control 36.8
Method in brief: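 Agar media (70 mm diameter, 10 mm thick) infected with Alternaria tenuis, treated with EC formulations at 1, 10, 100 and 1000 ppm active ingredient. Fungicidal effect read on day 5 after treatment as fungal colony diameter.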

[1] = test system: cotton seeds strongly infected by pathogens; assay: Seed dressing test, shoot up %; assay type: in vivo; settings: related to untreated control = 100
Excerpt: (§3) In this test cotton, maize, sunflower and sugar beet seeds strongly infected by pathogens and treated with different doses of 2-(0-2'-chloroethyl)-2-thio-1,3,2-oxathiophospholane (Compound No. 1) are used. The doses amount to 50, 100 and 200 g of active ingredient, respectively. As reference seeds being either untreated or treated with Mancozeb (manganese +zinc/-ethylene bis-dithiocarbamte) 0.8 kg/t +Benomyl (1-butyl carbamoyl-benzimidazole-2-methylcarbamate) 0.5 kg/t are used.
(§4) Compound No. 1 of the present invention is formulated as 50 WP in an analogous manner to Example 31. The test is carried out in six replicates, by sowing 10 seeds in each replicate. The results are evaluated by determining the shoot up % related to the control.

[2] = test system: maize seeds strongly infected by pathogens; assay: Seed dressing test, shoot up %; assay type: in vivo; settings: related to untreated control = 100
Excerpt: as §3, §4

[3] = test system: sugar beet seeds strongly infected by pathogens; assay: Seed dressing test, shoot up %; assay type: in vivo; settings: related to untreated control = 100
Excerpt: as §3, §4

[4] = test system: sunflower seeds strongly infected by pathogens; assay: Seed dressing test, shoot up %; assay type: in vivo; settings: related to untreated control = 100
Excerpt: as §3, §4

[5] = test system: Fusarium sp. and Alternaria sp.; assay: Soil disinfection test, shoot up %; assay type: in vivo, cotton; settings: 1 kg of active ingredient/ha; soil disinfectant granules; untreated control = 100
Method: (§5) The soil is watered and admixed with a Fusarium sp. and Alternaria sp. suspension. In the infected soil cotton and sugar beet seeds are sown, namely 10 seeds per replicate. Eight replicates are used in the test. The soil is treated with 2-(0-2'-chloroethyl)-2-thio-1,3,2-oxathiophospholane (Compound No. 1) in a dose of 1 kg of active ingredient.ha^- 1. Treatment is carried out with soil disinfectant granules prepared in an analogous manner to Example 33. Evaluation is carried out by determining the shoot up % related to the untreated control.

[6] = test system: Fusarium sp. and Alternaria sp.; assay: Soil disinfection test, shoot up %; assay type: in vivo, sugar beet; settings: 1 kg of active ingredient/ha; soil disinfectant granules; untreated control = 100
Method: as §5

CCO[PH](=O)O [Aliette, aluminum-tris-(O-ethyl-phosphate), reference compound]
Diameter of Colony (MM) Alternaria (Alternaria sp.; 1 ppm): 34.05 MM | Diameter of Colony (MM) Alternaria (Alternaria sp.; 5 ppm): 35.16 MM | Diameter of Colony (MM) Alternaria (Alternaria sp.; 10 ppm): 29.41 MM | Diameter of Colony (MM) Alternaria (Alternaria sp.; 50 ppm): 26.13 MM | Diameter of Colony (MM) Alternaria (Alternaria sp.; 100 ppm): 19.16 MM | Diameter of Colony (MM) Alternaria (Alternaria sp.; 1000 ppm): 8.92 MM | Diameter of Colony (MM) Penicillium (Penicillium sp.; 1 ppm): 21.35 MM | Diameter of Colony (MM) Penicillium (Penicillium sp.; 5 ppm): 20.66 MM | Diameter of Colony (MM) Penicillium (Penicillium sp.; 10 ppm): 18.45 MM | Diameter of Colony (MM) Penicillium (Penicillium sp.; 50 ppm): 17.63 MM | Diameter of Colony (MM) Penicillium (Penicillium sp.; 100 ppm): 16.62 MM | Diameter of Colony (MM) Penicillium (Penicillium sp.; 1000 ppm): 10.15 MM | Diameter of Colony (MM) Sclerotinia (Sclerotinia sp.; 1 ppm): 40.45 MM | Diameter of Colony (MM) Sclerotinia (Sclerotinia sp.; 5 ppm): 39.64 MM | Diameter of Colony (MM) Sclerotinia (Sclerotinia sp.; 10 ppm): 36.44 MM | Diameter of Colony (MM) Sclerotinia (Sclerotinia sp.; 50 ppm): 28.06 MM | Diameter of Colony (MM) Sclerotinia (Sclerotinia sp.; 100 ppm): 22.40 MM | Diameter of Colony (MM) Sclerotinia (Sclerotinia sp.; 1000 ppm): 6.75 MM

S=P1(OCCCl)OCCS1 (centres unmarked) [Compound 1, 2-(O-2'-chloroethyl)-2-thio-1,3,2-oxathiophospholane]
Diameter of colony (mm) (Sclerotinia sclerotinia; 1 ppm): 39.4 mm | Diameter of colony (mm) (Sclerotinia sclerotinia; 10 ppm): 31.7 mm | Diameter of colony (mm) (Sclerotinia sclerotinia; 100 ppm): 3.5 mm | Diameter of colony (mm) (Sclerotinia sclerotinia; 1000 ppm): 0 mm | Diameter of colony (mm) (Penicillium cyclopium; 1 ppm): 23.2 mm | Diameter of colony (mm) (Penicillium cyclopium; 10 ppm): 20.0 mm | Diameter of colony (mm) (Penicillium cyclopium; 100 ppm): 8.0 mm | Diameter of colony (mm) (Penicillium cyclopium; 1000 ppm): 0 mm | Diameter of colony (mm) (Alternaria tenuis; 1 ppm): 33.5 mm | Diameter of colony (mm) (Alternaria tenuis; 10 ppm): 25.8 mm | Diameter of colony (mm) (Alternaria tenuis; 100 ppm): 7.6 mm | Diameter of colony (mm) (Alternaria tenuis; 1000 ppm): 0 mm | Diameter of Colony (MM) Alternaria (Alternaria sp.; 1 ppm): 33.50 MM | Diameter of Colony (MM) Alternaria (Alternaria sp.; 5 ppm): 32.25 MM | Diameter of Colony (MM) Alternaria (Alternaria sp.; 10 ppm): 25.87 MM | Diameter of Colony (MM) Alternaria (Alternaria sp.; 50 ppm): 16.75 MM | Diameter of Colony (MM) Alternaria (Alternaria sp.; 100 ppm): 7.62 MM | Diameter of Colony (MM) Alternaria (Alternaria sp.; 1000 ppm): 0 MM | Diameter of Colony (MM) Penicillium (Penicillium sp.; 1 ppm): 22.20 MM | Diameter of Colony (MM) Penicillium (Penicillium sp.; 5 ppm): 20.05 MM | Diameter of Colony (MM) Penicillium (Penicillium sp.; 10 ppm): 20.05 MM | Diameter of Colony (MM) Penicillium (Penicillium sp.; 50 ppm): 19.40 MM | Diameter of Colony (MM) Penicillium (Penicillium sp.; 100 ppm): 8.12 MM | Diameter of Colony (MM) Penicillium (Penicillium sp.; 1000 ppm): 0 MM | Diameter of Colony (MM) Sclerotinia (Sclerotinia sp.; 1 ppm): 39.37 MM | Diameter of Colony (MM) Sclerotinia (Sclerotinia sp.; 5 ppm): 40.62 MM | Diameter of Colony (MM) Sclerotinia (Sclerotinia sp.; 10 ppm): 31.75 MM | Diameter of Colony (MM) Sclerotinia (Sclerotinia sp.; 50 ppm): 10.62 MM | Diameter of Colony (MM) Sclerotinia (Sclerotinia sp.; 100 ppm): 3.50 MM | Diameter of Colony (MM) Sclerotinia (Sclerotinia sp.; 1000 ppm): 0 MM | Shoot up % Cotton ([1]; 50 g/t): 146% | Shoot up % Cotton ([1]; 100 g/t): 218% | Shoot up % Cotton ([1]; 200 g/t): 255% | Shoot up % Maize ([2]; 50 g/t): 121% | Shoot up % Maize ([2]; 100 g/t): 133% | Shoot up % Maize ([2]; 200 g/t): 125% | Shoot up % Sugar beet ([3]; 50 g/t): 205% | Shoot up % Sugar beet ([3]; 100 g/t): 312% | Shoot up % Sugar beet ([3]; 200 g/t): 156% | Shoot up % Sunflower ([4]; 50 g/t): 132% | Shoot up % Sunflower ([4]; 100 g/t): 154% | Shoot up % Sunflower ([4]; 200 g/t): 129% | Shoot up % Cotton [5]: 239% | Shoot up % Sugar beet [6]: 346%
